Measured values published in US20250295648A1 (priority 2024, published 2025).

Legend:
[1] = system: overall PD symptoms in PD patients with LID; test: Clinical Global Impression of Change (CGI-C); assay type: in vivo, human
From the text: The CGI-C is a clinician-oriented scale that assesses the total improvement in the patient's condition relative to the clinical global impression of severity (CGI-S) scale conducted at baseline. The CGI-C rates the patient's condition from 0 to 7, with a rating of 0 indicating “no assessment”, a rating of 1 indicating “very much better”, and a rating of 7 indicating “very much worse”.

[2] = system: PD patients with LID; test: Parkinson's Disease Questionnaire (PDQ39); assay type: in vivo, human; conditions: for PDQ39, mean change from baseline: per-protocol set
From the text: The PDQ39-item patient reported outcome of health status and quality of life and is the most frequently used disease-specific health status measure for PD. The questionnaire assesses how often people affected by PD experience difficulties across 8 dimensions of daily living. The standard PDQ39 assesses quality of life over the previous month. In this study the initial time period assessed at the Baseline Visit would be the previous month, with subsequent assessments for the intervening period since the last clinic visit (about 3 weeks). The 8 quality of life dimensions covered in the questionnaire are: • gg. Mobility (10 items #1-10) • hh. ADL (6 items #11-16) • ii. Emotional Well Being (6 items #17-22) • jj. Stigma (4 items #23-26) • kk. Social Support (3 items #27-29) • ll. Cognition (4 items #30-33) • mm. Communications (3 items #34-36) • nn. Bodily Discomfort (3 items #37-39) Individual items are rated by the patient on a scale of […]. Dimension scores are calculated on a scale of 0 to 100. The total score and individual dimension scores would be assessed for change from baseline.

[3] = system: Parkinson's disease symptoms in PD patients with LID; test: Unified Parkinson's Disease Rating Scale (UPDRS); conditions: for UPDRS Part 3 score (motor disability), change from baseline: p=0.0072 vs baseline; for UPDRS Part 3 Motor Total, collected value, mean / UPDRS Part 3 Motor Total, collected value, median / UPDRS Total Score (all Parts), collected value, Mean / UPDRS Total Score (all Parts), collected value, Median / UPDRS Part 3 Motor Total, absolute change from baseline, mean / UPDRS Part 3 Motor Total, absolute change from baseline, median / UPDRS Part 3 Motor Total, relative change from baseline (%), mean / UPDRS Part 3 Motor Total, relative change from baseline (%), median / UPDRS Total Score (all Parts), absolute change from baseline, Mean / UPDRS Total Score (all Parts), absolute change from baseline, Median / UPDRS Total Score (all Parts), relative change from baseline (%), Mean / UPDRS Total Score (all Parts), relative change from baseline (%), Median: Full analysis set
Method: Patients were rated for dyskinesia at baseline and on days 28 (at end of up-titration period) and 42 (end of stable dosing period). Because the level of dyskinesia experienced by patients can vary over time, they were given 150% (i.e., 1.5×) of their regular L-DOPA dose (up to a maximum of 250 mg) as a challenge 30 min before each dyskinesia assessment to improve comparability between patients and between visits. Patients were filmed 30, 60 and 90 min after dosing with L-DOPA (˜5 min of filming each time). LID was assessed using the Unified Dyskinesia Rating Scale (UDysRS). Changes from baseline are shown for total score (i.e., Parts 1 to 4), for total objective score (i.e., Parts 3+4), and for the sum of Part 3 objective impairment assessment scores. Because objective LID assessment was carried out at 3 time-points (30, 60 and 90 min) following L-DOPA challenge, the above parameters were analyzed based on the most severe of the three scores as well as on the average score of the 3 time points. PD symptoms were assessed by Unified Parkinson's Disease Rating Scale (UPDRS) 30-90 min after the 150% L-DOPA challenge (i.e., when the patient was ON). Changes from baseline are shown for total score (i.e., Parts 1 to 4) and individual scores for each Part, 1, 2, 3 and 4.
The UPDRS consists of 4 parts: • v. Part I assesses non-motor experiences of daily living, such as cognitive impairment and depressed mood. • w. Part II assesses motor experiences of daily living, such as speech and eating tasks. • x. Part III is a motor examination conducted by the clinician, including assessments of symptoms such as rigidity and tremor. • y. Part IV is an assessment of motor complications, such as time spent with dyskinesia and functional impact of dyskinesias.
Each item in the UPDRS is scored from 0 to 4, and the individual scores are summed to give a total score that indicates the severity of the disease, with a score of 0 indicating no disability and a score of 199 being the most severe (indicating total disability).
Change from baseline in UPDRS combined scores (Parts I, II, III and IV) to Visit 6 (Day 28) and Visit 7 (Day 42) respectively would be summarized using descriptive statistics. […] The same analysis would be done for UPDRS Part III only.
The baseline value of the dependent variable has been included in the model as a continuous covariate. Kenward-Roger's improved approximation for degrees of freedom (2009) has been used; ^b)=p-value for the difference between NLX-112 at the assessment timepoint and at baseline; ^c)=p-value for the difference between placebo at the assessment timepoint and at baseline; ^d)=p-value for the difference between NLX-112 and placebo absolute change from baseline at the assessment timepoint.

[4] = 5 patients co-treated with amantadine

Cc1ccc(CNCC2(F)CCN(C(=O)c3ccc(F)c(Cl)c3)CC2)nc1 [NLX-112, (3-chloro-4-fluoro-phenyl)-[4-fluoro-4-{[(5-methyl-pyridin-2-ylmethyl)-amino]-methyl}piperidin-1-yl]methanone]
CGI-C: proportion of patients minimally, much or very much improved ([1]; Day 28): 33% | CGI-C: proportion of patients minimally, much or very much improved ([1]; Day 42): 53% | CGI-C Minimally improved, number of patients ([1]; Stable Dosing (d 42), n = 15): 3 | CGI-C Minimally improved, proportion of patients ([1]; Stable Dosing (d 42), n = 15): (20%) | CGI-C Minimally worse, number of patients ([1]; Stable Dosing (d 42), n = 15): 1 | CGI-C Minimally worse, proportion of patients ([1]; Stable Dosing (d 42), n = 15): (6.7%) | CGI-C Much improved, number of patients ([1]; Stable Dosing (d 42), n = 15): 4 | CGI-C Much improved, proportion of patients ([1]; Stable Dosing (d 42), n = 15): (27%) | CGI-C No change, number of patients ([1]; Stable Dosing (d 42), n = 15): 6 | CGI-C No change, proportion of patients ([1]; Stable Dosing (d 42), n = 15): (40%) | CGI-C Total Improved, number of patients ([1]; Stable Dosing (d 42), n = 15): 8 | CGI-C Total Improved, proportion of patients ([1]; Stable Dosing (d 42), n = 15): (53%) | CGI-C Very much improved, number of patients ([1]; Stable Dosing (d 42), n = 15): 1 | CGI-C Very much improved, proportion of patients ([1]; Stable Dosing (d 42), n = 15): (6.7%) | CGI-C Minimally improved, number of patients ([1]; Up-Titration (d 28), n = 15): 3 | CGI-C Minimally improved, proportion of patients ([1]; Up-Titration (d 28), n = 15): 20% | CGI-C Minimally worse, number of patients ([1]; Up-Titration (d 28), n = 15): 1 | CGI-C Minimally worse, proportion of patients ([1]; Up-Titration (d 28), n = 15): 6.7% | CGI-C Much improved, number of patients ([1]; Up-Titration (d 28), n = 15): 2 | CGI-C Much improved, proportion of patients ([1]; Up-Titration (d 28), n = 15): 13% | CGI-C No change, number of patients ([1]; Up-Titration (d 28), n = 15): 9 | CGI-C No change, proportion of patients ([1]; Up-Titration (d 28), n = 15): 60% | CGI-C Total Improved, number of patients ([1]; Up-Titration (d 28), n = 15): 5 | CGI-C Total Improved, proportion of patients ([1]; Up-Titration (d 28), n = 15): 33% | CGI-C Very much improved, number of patients ([1]; Up-Titration (d 28), n = 15): 0 | CGI-C overall PD symptoms, NLX-112 vs placebo ([1]; days 28 and 42): no statistically significant differences | quality of life (PDQ39 score) ([2]; Days 28 or 42): no consistent statistically significant effect | PDQ39, mean ([2]; per-protocol set (n = 15), Baseline): 18.7 | PDQ39, mean change from baseline ([2]; Δ D 28 (end of up-titration)): −1.5 | PDQ39, mean change from baseline ([2]; Δ D 42 (end of stable dosing)): −0.6 | UPDRS Part 3, mean change from baseline [3, 4]: −4.2 | UPDRS Total, mean change from baseline [3, 4]: −6.6 | UPDRS Part 2 (motor experiences of daily living), vs baseline ([3]; Day 28): statistically significant reduction | UPDRS total score (Parts 1-4), change from baseline ([3]; Day 28, PPS, p=0.0005 vs baseline): −6.5 points | UPDRS Part 3 score (motor disability), change from baseline ([3]; Day 28, PPS): −3.7 points | UPDRS total score (Parts 1-4), change from baseline ([3]; Day 42, PPS, p=0.0021 vs baseline): −5.7 points | UPDRS Part 3 score (motor disability), change from baseline ([3]; Day 42, PPS): −3.7 points | UPDRS total score absolute change from baseline, NLX-112 vs placebo ([3]; Days 28 or 42): no significant differences | UPDRS Part 3 Motor Total, collected value, mean ([3]; Visit 2 Baseline): 17.8 | UPDRS Part 3 Motor Total, collected value, median ([3]; Visit 2 Baseline): 16.0 | UPDRS Total Score (all Parts), collected value, Mean ([3]; Visit 2 Baseline): 38.3 | UPDRS Total Score (all Parts), collected value, Median ([3]; Visit 2 Baseline): 37.5 | UPDRS Part 3 Motor Total, absolute change from baseline, mean ([3]; Visit 6 Clinic Efficacy Visit): −3.7 | UPDRS Part 3 Motor Total, absolute change from baseline, median ([3]; Visit 6 Clinic Efficacy Visit): −4.0 | UPDRS Part 3 Motor Total, collected value, mean ([3]; Visit 6 Clinic Efficacy Visit): 13.9 | UPDRS Part 3 Motor Total, collected value, median ([3]; Visit 6 Clinic Efficacy Visit): 14.0 | UPDRS Part 3 Motor Total, relative change from baseline (%), mean ([3]; Visit 6 Clinic Efficacy Visit): −21.8% | UPDRS Part 3 Motor Total, relative change from baseline (%), median ([3]; Visit 6 Clinic Efficacy Visit): −21.4% | UPDRS Total Score (all Parts), absolute change from baseline, Mean ([3]; Visit 6 Clinic Efficacy Visit): −6.5 | UPDRS Total Score (all Parts), absolute change from baseline, Median ([3]; Visit 6 Clinic Efficacy Visit): −5.0 | UPDRS Total Score (all Parts), collected value, Mean ([3]; Visit 6 Clinic Efficacy Visit): 30.5 | UPDRS Total Score (all Parts), collected value, Median ([3]; Visit 6 Clinic Efficacy Visit): 29.0 | UPDRS Total Score (all Parts), relative change from baseline (%), Mean ([3]; Visit 6 Clinic Efficacy Visit): −17.4% | UPDRS Total Score (all Parts), relative change from baseline (%), Median ([3]; Visit 6 Clinic Efficacy Visit): −15.2% | UPDRS Part 3 Motor Total, absolute change from baseline, mean ([3]; Visit 7 Clinic Efficacy Visit): −3.7 | UPDRS Part 3 Motor Total, absolute change from baseline, median ([3]; Visit 7 Clinic Efficacy Visit): −4.0 | UPDRS Part 3 Motor Total, collected value, mean ([3]; Visit 7 Clinic Efficacy Visit): 13.9 | UPDRS Part 3 Motor Total, collected value, median ([3]; Visit 7 Clinic Efficacy Visit): 14.0 | UPDRS Part 3 Motor Total, relative change from baseline (%), mean ([3]; Visit 7 Clinic Efficacy Visit): −21.5% | UPDRS Part 3 Motor Total, relative change from baseline (%), median ([3]; Visit 7 Clinic Efficacy Visit): −33.3% | UPDRS Total Score (all Parts), absolute change from baseline, Mean ([3]; Visit 7 Clinic Efficacy Visit): −5.7 | UPDRS Total Score (all Parts), absolute change from baseline, Median ([3]; Visit 7 Clinic Efficacy Visit): −5.0 | UPDRS Total Score (all Parts), collected value, Mean ([3]; Visit 7 Clinic Efficacy Visit): 31.3 | UPDRS Total Score (all Parts), collected value, Median ([3]; Visit 7 Clinic Efficacy Visit): 30.0 | UPDRS Total Score (all Parts), relative change from baseline (%), Mean ([3]; Visit 7 Clinic Efficacy Visit): −15.7% | UPDRS Total Score (all Parts), relative change from baseline (%), Median ([3]; Visit 7 Clinic Efficacy Visit): −19.2% | UPDRS Part 3 Motor Total, absolute change from baseline, mean ([3]; Visit 9 Follow-up Clinic Visit): −2.7 | UPDRS Part 3 Motor Total, absolute change from baseline, median ([3]; Visit 9 Follow-up Clinic Visit): −2.0 | UPDRS Part 3 Motor Total, collected value, mean ([3]; Visit 9 Follow-up Clinic Visit): 14.8
